Experimental data from ChEMBL document CHEMBL5376025, “Colorectal anticancer activity of a novel class of triazolic triarylmethane derivatives” (RSC Med Chem, 2024).
pIC50: −log10 of the molar value. Activity calls are given as the source filed them. The calls are words filed in the database; no cut-off is given here.

Key:
[1] = tested on: HT-29; assay: Antiproliferative activity against human HT-29 cells assessed as inhibition of cell growth measured after 48 hrs by MTT assay; format: functional, cell-based; details: HT-29, 48 h
[2] = tested on: HCT-116; assay: Antiproliferative activity against human HCT-116 cells assessed as inhibition of cell growth measured after 48 hrs by MTT assay; format: functional, cell-based; details: HCT-116, 48 h
[3] = tested on: HT-29; assay: Antiproliferative activity against human HT-29 cells assessed as inhibition of cell growth at 50 uM measured after 48 hrs by MTT assay; format: functional, cell-based; details: HT-29, 48 h
[4] = tested on: HCT-116; assay: Antiproliferative activity against human HCT-116 cells assessed as inhibition of cell growth at 50 uM measured after 48 hrs by MTT assay; format: functional, cell-based; details: HCT-116, 48 h
[5] = tested on: L929; assay: Cytotoxicity against mouse L929 cells assessed as reduction in cell viability at 0.78 to 100 uM measured after 24 hrs by MTT colorimetric assay; format: toxicity, cell-based; details: l929, 24 h, dose 0.78-100 µM
[6] = Cytotoxicity against mouse L929 cells assessed as cell survival at 0.78 to 100 uM measured after 24 hrs by MTT colorimetric assay relative to control; format: toxicity, cell-based; details: dose 0.78-100 µM, read-out: Activity
[7] = tested on: HT-29; assay: Induction of apoptosis in human HT-29 cells assessed as increase in cleaved caspase-3 expression measured after 24 to 48 hrs by Western blot analysis; format: functional, cell-based; details: time 24-48 hrs
[8] = tested on: HCT-116; assay: Induction of apoptosis in human HCT-116 cells assessed as increase in cleaved caspase-3 expression measured after 24 hrs by Western blot analysis; format: functional, cell-based
[9] = tested on: HCT-116; assay: Induction of apoptosis in human HCT-116 cells assessed as increase in cleaved caspase-3 expression measured after 48 hrs by Western blot analysis; format: functional, cell-based
[10] = tested on: HCT-116; assay: Induction of apoptosis in human HCT-116 cells assessed as inhibition of capsase-3 expression measured after 24 to 48 hrs by Western blot analysis; format: functional, cell-based; details: time 24-48 hrs
[11] = tested on: HT-29; assay: Induction of apoptosis in human HT-29 cells assessed as inhibition of capsase-3 expression measured after 24 to 48 hrs by Western blot analysis; format: functional, cell-based; details: time 24-48 hrs
[12] = tested on: HT-29; assay: Induction of apoptosis in human HT-29 cells assessed as increase in cleaved PARP expression measured after 48 hrs by Western blot analysis; format: functional, cell-based
[13] = tested on: HCT-116; assay: Induction of apoptosis in human HCT-116 cells assessed as increase in cleaved PARP expression measured after 24 to 48 hrs by Western blot analysis; format: functional, cell-based; details: time 24-48 hrs
[14] = tested on: HT-29; assay: Induction of apoptosis in human HT-29 cells assessed as inhibition of PARP expression by Western blot analysis; format: functional, cell-based; details: time 24-48 hrs, TDE = time-dependent effect
[15] = tested on: HCT-116; assay: Induction of apoptosis in human HCT-116 cells assessed as inhibition of PARP expression by Western blot analysis; format: functional, cell-based; details: time 24-48 hrs, TDE = time-dependent effect
[16] = tested on: HT-29; assay: Induction of apoptosis in human HT-29 cells assessed as fold increase in DNA fragmentation measured after 48 hrs by ELISA method; format: functional
[17] = tested on: HCT-116; assay: Induction of apoptosis in human HCT-116 cells assessed as fold increase in DNA fragmentation measured after 48 hrs by ELISA method; format: functional
[18] = tested on: HCT-116; assay: Induction of apoptosis in human HCT-116 cells assessed as upregulation of Akt expression level measured after 6 to 12 hrs by Western blotting analysis; format: functional, cell-based; details: time 6-12 hrs
[19] = tested on: HCT-116; assay: Induction of apoptosis in human HCT-116 cells assessed as downregulation of Akt phosphorylation level measured after 6 hrs by Western blotting analysis; format: functional, cell-based
[20] = tested on: HCT-116; assay: Induction of apoptosis in human HCT-116 cells assessed as decrease in ERK phosphorylation level measured after 6 hrs by Western blotting analysis; format: functional, cell-based
[21] = tested on: HCT-116; assay: Induction of apoptosis in human HCT-116 cells assessed as inhibition of ERK phosphorylation level measured after 12 hrs by Western blotting analysis; format: functional, cell-based
[22] = tested on: HCT-116; assay: Induction of apoptosis in human HCT-116 cells assessed as activation of p38 measured after 6 to 12 hrs by Western blotting analysis; format: functional, cell-based; details: time 6-12 hrs
[23] = tested on: HCT-116; assay: Induction of apoptosis in human HCT-116 cells assessed as effect on ERK expression level measured after 6 to 12 hrs by Western blotting analysis; format: functional, cell-based; details: time 6-12 hrs

Row | pIC50 [1] | pIC50 [2] | Structure (SMILES) | Activity [5] | viability at 24 h, up to 100 µM [6] [%] | also measured
1 | < 4.30 | < 4.30 | O[C@@H]1[C@@H](O)[C@@H](O)O[C@H](Cn2cc(COc3ccc(C(c4ccc(OCc5cn(C[C@H]6O[C@H](O)[C@H](O)[C@@H](O)[C@H]6O)nn5)cc4)c4ccccn4)cc3)nn2)[C@@H]1O (some centres undefined) | – | – | –
2 | < 4.30 | < 4.30 | [O-][n+]1ccccc1C(c1ccc(OCc2cn(CCN3CCCCC3)nn2)cc1)c1ccc(OCc2cn(CCN3CCCCC3)nn2)cc1 | – | – | pIC50 [3]: < 4.30; pIC50 [4]: < 4.30
3 | 4.61 | 4.35 | C#CCOc1ccc(C(c2ccc(OCc3cn(CCN4CCCCC4)nn3)cc2)c2ccccn2)cc1 (centres undefined) | Non-Toxic | 100 | –
4 | 4.96 | 4.84 | c1ccc(C(c2ccc(OCc3cn(CCN4CCCCC4)nn3)cc2)c2ccc(OCc3cn(CCN4CCCCC4)nn3)cc2)nc1 | Non-Toxic | 100 | Activity [7]: Active; Activity [8]: inactive; Activity [9]: Active; Activity [10]: Active; Activity [11]: Active; Activity [12]: Active; Activity [13]: Active; Activity [14]: Tde; Activity [15]: Tde; fold change (FC) [16]: 5.37; fold change (FC) [17]: 6.73; Activity [18]: Active; Activity [19]: Active; Activity [20]: Active; Activity [21]: Active; Activity [22]: inactive; Activity [23]: inactive
5 | < 4.30 | < 4.30 | c1ccc(Cn2cc(COc3ccc(C(c4ccc(OCc5cn(Cc6ccccc6)nn5)cc4)c4ccccn4)cc3)nn2)cc1 | Non-Toxic | 100 | –
6 | < 4.30 | < 4.30 | C#CCOc1ccc(C(c2ccc(OCc3cn(Cc4ccccc4)nn3)cc2)c2ccccn2)cc1 (centres undefined) | Non-Toxic | 100 | –
7 | < 4.30 | < 4.30 | OC[C@@H](O)[C@H]1O[C@H](O)[C@H](O)[C@H]1n1cc(COc2ccc(C(c3ccc(OCc4cn([C@@H]5[C@@H](O)[C@@H](O)O[C@@H]5[C@H](O)CO)nn4)cc3)c3ccccn3)cc2)nn1 (some centres undefined) | – | – | –
8 | < 4.30 | < 4.30 | C#CCOc1ccc(C(c2ccc(OCc3cnnn3CCCN)cc2)c2ccccn2)cc1 (centres undefined) | Non-Toxic | 100 | –
9 | < 4.30 | < 4.30 | c1ccc(C(c2ccc(OCc3cn(C[C@H]4CCCN4)nn3)cc2)c2ccc(OCc3cn(C[C@H]4CCCN4)nn3)cc2)nc1 | Non-Toxic | 100 | –
